Numbered stars: 1 amine (or outer) side, 2 acyl side, 3 side chain; on linkers, the order of the positions; unused ones are H or OH. Square brackets hold non-standard residues; d marks the D form. Peptide text beside a SMILES is read from it. ξ: configuration not given here. X1 = O=C([C@H]1CCC[C@@H]1N[*:1])[*:2]; X2 = O=C([C@H]1CNC[C@@H]1N[*:1])[*:2]; ξβ3hY = NC(CC(=O)O)Cc1ccc(O)cc1; β3hN = NC(=O)C[C@H](N)CC(=O)O; β3hV = CC(C)[C@H](N)CC(=O)O; ξβ3hQ = NC(=O)CCC(N)CC(=O)O; ξβ3hN = NC(=O)CC(N)CC(=O)O; ξβ3hL = CC(C)CC(N)CC(=O)O; ξβ3hK = NCCCCC(N)CC(=O)O; ξβ3hV = CC(C)C(N)CC(=O)O; Aib = CC(C)(N)C(=O)O; βAla = NCCC(=O)O
Assays:
[1] = molecular target: T1, Vasoactive intestinal polypeptide receptor 1 (Homo sapiens, UniProt P32241); assay: Agonist activity at human VIPR1 expressed in CHOK1 cells assessed as intracellular cAMP accumulation after 60 mins by PathHunter assay; format: functional, cell-based
T1 sequence (P32241 whole entry): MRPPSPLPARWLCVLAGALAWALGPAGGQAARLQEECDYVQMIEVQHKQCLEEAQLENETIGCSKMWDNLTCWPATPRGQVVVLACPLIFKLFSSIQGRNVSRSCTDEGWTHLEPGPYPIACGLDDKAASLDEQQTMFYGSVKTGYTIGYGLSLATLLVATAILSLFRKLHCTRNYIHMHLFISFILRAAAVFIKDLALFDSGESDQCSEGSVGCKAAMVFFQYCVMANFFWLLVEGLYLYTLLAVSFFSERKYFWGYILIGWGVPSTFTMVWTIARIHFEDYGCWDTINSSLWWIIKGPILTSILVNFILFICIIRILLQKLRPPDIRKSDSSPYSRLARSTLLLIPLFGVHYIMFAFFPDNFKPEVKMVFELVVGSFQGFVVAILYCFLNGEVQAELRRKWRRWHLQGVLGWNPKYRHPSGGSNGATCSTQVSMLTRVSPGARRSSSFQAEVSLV

[2] = molecular target: T2, Vasoactive intestinal polypeptide receptor 2 (Homo sapiens, UniProt P41587); assay: Agonist activity at human VIPR2 expressed in CHOK1 cells assessed as intracellular cAMP accumulation after 60 mins by PathHunter assay; format: functional, cell-based
T2 sequence (P41587 whole entry): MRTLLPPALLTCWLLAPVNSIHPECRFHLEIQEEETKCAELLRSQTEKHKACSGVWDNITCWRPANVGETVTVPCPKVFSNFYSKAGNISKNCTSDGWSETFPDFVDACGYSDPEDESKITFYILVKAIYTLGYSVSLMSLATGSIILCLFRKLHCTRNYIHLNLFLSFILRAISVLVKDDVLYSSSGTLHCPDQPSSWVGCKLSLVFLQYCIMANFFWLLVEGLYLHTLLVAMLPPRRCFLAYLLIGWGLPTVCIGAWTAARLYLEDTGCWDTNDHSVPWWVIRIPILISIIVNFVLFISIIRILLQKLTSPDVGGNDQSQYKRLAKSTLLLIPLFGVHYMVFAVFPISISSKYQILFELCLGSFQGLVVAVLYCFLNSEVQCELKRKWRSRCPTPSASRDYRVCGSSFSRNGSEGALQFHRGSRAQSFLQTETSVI

| Compound | EC50 [1] | EC50 [2] |
| --- | --- | --- |
| CC[C@H](C)[C@H](NC(=O)[C@H](CO)NC(=O)[C@H]1CCC[C@@H]1NC(=O)[C@H](CC(C)C)NC(=O)[C@H](Cc1ccc(O)cc1)NC(=O)[C@H]1CNC[C@@H]1NC(=O)[C@H](CCCCN)NC(=O)[C@H](C)NC(=O)[C@H](C)NC(=O)[C@H]1CCC[C@@H]1NC(=O)[C@H](CCC(N)=O)NC(=O)[C@H](CCCCN)NC(=O)[C@H](CCCNC(=N)N)NC(=O)[C@H](CC(C)C)NC(=O)[C@H](CCCNC(=N)N)NC(=O)[C@@H](NC(=O)[C@H](Cc1ccc(O)cc1)NC(=O)[C@H](CC(N)=O)NC(=O)[C@H](CC(=O)O)NC(=O)[C@@H](NC(=O)[C@H](Cc1ccccc1)NC(=O)[C@@H](NC(=O)[C@H](C)NC(=O)[C@H](CC(=O)O)NC(=O)[C@H](CO)NC(=O)[C@H](Cc1cnc[nH]1)NC(C)=O)C(C)C)[C@@H](C)O)[C@@H](C)O)C(=O)N[C@@H](CCCCN)C(=O)NC(CC(N)=O)CC(=O)N[C@@H](CCCCN)C(=O)N[C@@H](CCCNC(=N)N)C(=O)N[C@@H](Cc1ccc(O)cc1)C(=O)O (stereo partly drawn) (Ac-HSDAVFTDNYTRLRKQ[X1]AAK[X2]YL[X1]SIK[ξβ3hN]KRY-OH) | 0.195 nM | 0.0785 nM |
| CC(=O)N[C@@H](Cc1cnc[nH]1)C(=O)N[C@H]1CCC[C@@H]1C(=O)N[C@@H](CC(=O)O)C(=O)N[C@@H](C)C(=O)NC(CC(=O)N[C@@H](Cc1ccccc1)C(=O)N[C@H](C(=O)N[C@@H](CCC(=O)O)C(=O)N[C@@H](CC(N)=O)C(=O)N[C@@H](Cc1ccc(O)cc1)C(=O)N[C@H](C(=O)N[C@@H](CCCCN)C(=O)NC(CC(=O)N[C@@H](CCCNC(=N)N)C(=O)N[C@@H](CCCCN)C(=O)N[C@@H](CCC(N)=O)C(=O)N[C@@H](CC(C)C)C(=O)N[C@@H](C)C(=O)N[C@@H](C)C(=O)N[C@H]1CNC[C@@H]1C(=O)N[C@@H](CCCCN)C(=O)N[C@@H](Cc1ccc(O)cc1)C(=O)N[C@H]1CCC[C@@H]1C(=O)N[C@@H](CC(N)=O)C(=O)N[C@@H](CC(=O)O)C(=O)N[C@@H](CC(C)C)C(=O)NC(CCCCN)CC(=O)N[C@@H](CCCCN)C(=O)NCC(=O)NCCC(=O)N[C@H](C(=O)O)[C@@H](C)O)CC(C)C)[C@@H](C)O)[C@@H](C)O)C(C)C (stereo partly drawn) (Ac-H[X1]DA[ξβ3hV]FTENYTK[ξβ3hL]RKQLAA[X2]KY[X1]NDL[ξβ3hK]KG[βAla]T-OH) | 1420 nM | 1.33 nM |
| CC(=O)N[C@@H](Cc1cnc[nH]1)C(=O)NC(C)(C)C(=O)N[C@@H](CC(=O)O)C(=O)N[C@@H](C)C(=O)N[C@H](CC(=O)N[C@@H](Cc1ccccc1)C(=O)N[C@H](C(=O)N[C@@H](CCC(=O)O)C(=O)N[C@@H](CC(N)=O)CC(=O)N[C@@H](Cc1ccc(O)cc1)C(=O)N[C@H](C(=O)N[C@@H](CCCCN)C(=O)N[C@@H](CC(C)C)C(=O)N[C@@H](CCCNC(=N)N)C(=O)N[C@@H](CCCCN)C(=O)N[C@@H](CCC(N)=O)C(=O)N[C@@H](CC(C)C)C(=O)N[C@@H](C)C(=O)N[C@@H](C)C(=O)N[C@H]1CNC[C@@H]1C(=O)N[C@@H](CCCCN)C(=O)N[C@@H](Cc1ccc(O)cc1)C(=O)N[C@H]1CCC[C@@H]1C(=O)N[C@@H](CC(N)=O)C(=O)N[C@@H](CC(=O)O)C(=O)N[C@@H](CC(C)C)C(=O)NC(CCCCN)CC(=O)N[C@@H](CCCCN)C(=O)NCC(=O)NCCC(=O)N[C@H](C(=O)O)[C@@H](C)O)[C@@H](C)O)[C@@H](C)O)C(C)C (stereo partly drawn) (Ac-H[Aib]DA[β3hV]FTE[β3hN]YTKLRKQLAA[X2]KY[X1]NDL[ξβ3hK]KG[βAla]T-OH) | > 1000 nM | 3.47 nM |
| CC[C@H](C)[C@H](NC(=O)[C@H](C)NC(=O)[C@H](CC(N)=O)NC(=O)CC(CC(C)C)NC(=O)[C@H](Cc1ccc(O)cc1)NC(=O)[C@H](CCCCN)NC(=O)[C@H](CCCCN)NC(=O)CC(NC(=O)[C@H](C)NC(=O)[C@H](CC(C)C)NC(=O)[C@H](CCC(N)=O)NC(=O)CC(CCCCN)NC(=O)[C@H](CCCNC(=N)N)NC(=O)[C@H](CC(C)C)NC(=O)[C@H](CCCNC(=N)N)NC(=O)CC(NC(=O)[C@H](Cc1ccc(O)cc1)NC(=O)[C@H](CC(N)=O)NC(=O)[C@H](CC(=O)O)NC(=O)[C@@H](NC(=O)[C@H](Cc1ccccc1)NC(=O)[C@H]1CCC[C@@H]1NC(=O)[C@H](C)NC(=O)[C@H](CC(=O)O)NC(=O)[C@@H](Cc1ccccc1)NC(=O)[C@@H](N)Cc1cnc[nH]1)[C@@H](C)O)C(C)O)C(C)C)C(=O)NC(CC(=O)N[C@@H](CC(N)=O)C(=O)O)CC(C)C (some centres undefined) | 89.3 nM | > 1000 nM |
| CC(=O)N[C@@H](Cc1cnc[nH]1)C(=O)N[C@H]1CCC[C@@H]1C(=O)N[C@@H](CC(=O)O)C(=O)N[C@@H](C)C(=O)N[C@H]1CCC[C@@H]1C(=O)N[C@@H](Cc1ccccc1)C(=O)N[C@H](C(=O)N[C@@H](CCC(=O)O)C(=O)N[C@H]1CCC[C@@H]1C(=O)N[C@@H](Cc1ccc(O)cc1)C(=O)N[C@H](C(=O)N[C@@H](CCCCN)C(=O)N[C@@H](CC(C)C)C(=O)N[C@@H](CCCNC(=N)N)C(=O)N[C@@H](CCCCN)C(=O)N[C@@H](CCC(N)=O)C(=O)N[C@@H](CC(C)C)C(=O)N[C@@H](C)C(=O)N[C@@H](C)C(=O)N[C@H]1CNC[C@@H]1C(=O)N[C@@H](CCCCN)C(=O)N[C@@H](Cc1ccc(O)cc1)C(=O)N[C@H]1CCC[C@@H]1C(=O)N[C@@H](CC(N)=O)C(=O)N[C@@H](CC(=O)O)C(=O)N[C@@H](CC(C)C)C(=O)NC(CCCCN)CC(=O)N[C@@H](CCCCN)C(=O)NCC(=O)NCCC(=O)N[C@H](C(=O)O)[C@@H](C)O)[C@@H](C)O)[C@@H](C)O (stereo partly drawn) (Ac-H[X1]DA[X1]FTE[X1]YTKLRKQLAA[X2]KY[X1]NDL[ξβ3hK]KG[βAla]T-OH) | > 1000 nM | 5.58 nM |
| CC(=O)N[C@@H](Cc1cnc[nH]1)C(=O)N[C@H]1CCC[C@@H]1C(=O)N[C@@H](CC(=O)O)C(=O)N[C@@H](C)C(=O)N[C@H]1CCC[C@@H]1C(=O)N[C@@H](Cc1ccccc1)C(=O)N[C@H](C(=O)N[C@@H](CCC(=O)O)C(=O)N[C@H]1CCC[C@@H]1C(=O)NC(CC(=O)N[C@H](C(=O)N[C@@H](CCCCN)C(=O)N[C@@H](CC(C)C)C(=O)N[C@@H](CCCNC(=N)N)C(=O)N[C@@H](CCCCN)C(=O)NCCC(=O)N[C@@H](CC(C)C)C(=O)N[C@@H](C)C(=O)N[C@@H](C)C(=O)N[C@H]1CNC[C@@H]1C(=O)N[C@@H](CCCCN)C(=O)N[C@@H](Cc1ccc(O)cc1)C(=O)N[C@H]1CCC[C@@H]1C(=O)N[C@@H](CC(N)=O)C(=O)N[C@@H](CC(=O)O)C(=O)N[C@@H](CC(C)C)C(=O)NC(CCCCN)CC(=O)N[C@@H](CCCCN)C(=O)NCC(=O)NCCC(=O)N[C@H](C(=O)O)[C@@H](C)O)[C@@H](C)O)Cc1ccc(O)cc1)[C@@H](C)O (stereo partly drawn) (Ac-H[X1]DA[X1]FTE[X1][ξβ3hY]TKLRK[βAla]LAA[X2]KY[X1]NDL[ξβ3hK]KG[βAla]T-OH) | > 1000 nM | 1.02 nM |
| CC(=O)N[C@@H](Cc1cnc[nH]1)C(=O)N[C@H]1CCC[C@@H]1C(=O)N[C@@H](CC(=O)O)C(=O)N[C@@H](C)C(=O)NC(CC(=O)N[C@@H](Cc1ccccc1)C(=O)N[C@H](C(=O)N[C@@H](CCC(=O)O)C(=O)N[C@@H](CC(N)=O)CC(=O)N[C@@H](Cc1ccc(O)cc1)C(=O)N[C@H](C(=O)N[C@@H](CCCCN)C(=O)N[C@@H](CC(C)C)C(=O)N[C@@H](CCCNC(=N)N)C(=O)N[C@@H](CCCCN)C(=O)NC(CCC(N)=O)CC(=O)N[C@@H](CC(C)C)C(=O)N[C@@H](C)C(=O)N[C@@H](C)C(=O)N[C@H]1CNC[C@@H]1C(=O)N[C@@H](CCCCN)C(=O)N[C@@H](Cc1ccc(O)cc1)C(=O)N[C@H]1CCC[C@@H]1C(=O)N[C@@H](CC(N)=O)C(=O)N[C@@H](CC(=O)O)C(=O)N[C@@H](CC(C)C)C(=O)NC(CCCCN)CC(=O)N[C@@H](CCCCN)C(=O)NCC(=O)NCCC(=O)N[C@H](C(=O)O)[C@@H](C)O)[C@@H](C)O)[C@@H](C)O)C(C)C (stereo partly drawn) (Ac-H[X1]DA[ξβ3hV]FTE[β3hN]YTKLRK[ξβ3hQ]LAA[X2]KY[X1]NDL[ξβ3hK]KG[βAla]T-OH) | 1530 nM | 3.52 nM |
